Data published in paper PMC12440775 (Frontiers in Pharmacology, 2025).
Where two headings read alike, the source gives them in different places.

Assays:
[1] = HCV-infected patients, ref Huang et al., cited from earlier work
[2] = Safety and tolerability, food effect part (Part 2); type: in vivo, human
Description: Six volunteers received the active drug at each dose level dissolved in a polyethylene glycol (PEG)/tromethamine (TRIS)/meglumine solution, and two received a placebo. One dose level was tested within each group. Subject groups were dosed and evaluated sequentially, beginning with the lowest-dose group and proceeding stepwise to the highest-dose group. The next higher dose was administered only if no safety concerns arose during treatment of the preceding group.
Safety was assessed throughout the study by monitoring changes in clinical laboratory parameters (e.g., serum biochemistry, hematology, and urinalysis), 12-lead electrocardiograms, or vital signs (blood pressure, pulse rate, and temperature measurements); monitoring for occurrence of AEs); and carrying out physical examinations.

[3] = Single ascending dose plasma pharmacokinetics (Part 1); type: in vivo, human; details: for half-life / AUC(0-inf) / Cmax / Tmax / AUC(0-t) / Vd/F: male, human, plasma; for Vd/F: read-out: Vz/F
Description: One dose level was tested within each group. Subject groups were dosed and evaluated sequentially, beginning with the lowest-dose group and proceeding stepwise to the highest-dose group.
(§1) Blood samples were taken pre-dose (0) and at prespecified time points after dosing (Figure 1). At each time point, approximately 4.9 mL of blood was drawn into evacuated collection tubes, containing ethylene diamine tetraacetate (EDTA) anticoagulant and labeled with sample identification information. The EDTA-anticoagulated blood samples were immediately placed on ice and centrifuged at 4 °C and approximately 2000–4,000 g for approximately 10 min in a refrigerated centrifuge as soon as possible after collection. The harvested plasma was split into two aliquots, immediately placed in appropriately labeled tubes, and stored at −20 °C or below until shipment.
(§2) Standard formulas for non-compartmental pharmacokinetic analysis provided by WinNonlin were used in determination of the maximum concentration (Cmax), time to maximum concentration (tmax), oral clearance (CL/F), mean residence time (MRTpo), and apparent volume distribution in terminal phase (Vz/F). The area under the plasma concentration–time curve (AUC) was calculated using a linear up/log down trapezoidal algorithm. The predicted concentration at the last time-point with quantifiable concentration was used for extrapolation of AUC. The fraction excreted as unchanged drug in urine (fe) was calculated as the percentage of the amount of drug excreted in urine as unchanged drug (Aet1–t2) compared to the administered dose ([Huang et al., 2008b]).
The power model was used for the analysis of dose proportionality in terms of AUC0– ∞ and Cmax. The model is described using the following equation: Ykm = α•Dk ^β •ekm. […] Dose linearity requires that β equals 1. […] Statistical analysis was performed using the SAS® program system (version 8.2, Cary, NC) ([Huang et al., 2008b]).

[4] = Food effect on relative bioavailability of 480 mg FDV, two-period crossover (Part 2); type: in vivo, human; details: for Tmax: median (range); for Tmax / AUC(0-t) / Vd/F / half-life: N = 7; for AUC(0-t) / Vd/F / half-life: mean (CV%); for Vd/F: read-out: Vz/F; for half-life: read-out: t½ (converted)
Description: as §1
as §2, with “2008b]). […]” for “2008b]).”

[5] = tested on: human Hepato Pac model; parameters: method as in Ramsden et al., 2014b; details: ref Ramsden et al., 2014b; cited from earlier work
[6] = tested on: CYP2C9; details: therapeutic dose of 120 mg QD; cited from earlier work
[7] = 480 mg FDV in solution, fed vs fasted
[8] = male, human, plasma, oral, 480 mg, FDV 480 mg/fasted
[9] = male, human, plasma, oral, 480 mg, FDV 480 mg/fed

C=C[C@@H]1C[C@]1(NC(=O)[C@@H]1C[C@@H](Oc2cc(-c3csc(NC(=O)C(C)C)n3)nc3c(Br)c(OC)ccc23)CN1C(=O)[C@@H](NC(=O)OC1CCCC1)C(C)(C)C)C(=O)O [FDV, Faldaprevir]
FDV exposure at 240 mg compared to the 120-mg dose, based on trough concentrations [1]; 2016: approximately 5 fold
FDV exposure at 240 mg compared to the 120-mg dose, based on AUC0–24,ss [1]; 2021: up to 7 fold
Subjects with increases in total bilirubin ([2]; 480 mg, Part 2): eight subjects
Diarrhea and nausea ([2]; Part 2, FDV 480 mg (n = 8)): three subjects
Headache ([2]; Part 2, FDV 480 mg (n = 8)): one subject
Vomiting ([2]; Part 2, FDV 480 mg (n = 8)): two subjects
Inter-subject variability, gCV of AUC0–∞ ([3]; higher-dose groups): 60–80%
half-life ([3]; oral, range over single doses of 4–1,200 mg, read-out: gMean t1/2): 15.5 to 39.2 h
AUC(0-inf) ([3]; oral, range over single doses of 4–1,200 mg, read-out: geometric mean (gMean) AUC0-inf): 254 to 402000 ng·h/mL
Cmax ([3]; oral, range over single doses of 4–1,200 mg, read-out: geometric mean (gMean) Cmax): 3.57 to 16500 ng/mL
Tmax ([3]; oral, range over single doses of 4–1,200 mg, read-out: median tmax): 4 to 14 h
AUC(0-t) ([3]; po, 4 mg): 201 ng·h/mL
half-life ([3]; po, 4 mg, FDV 4 mg single oral dose, fasted, gMean (gCV%), read-out: t½ (converted)): ~39 h
AUC(0-inf) ([3]; po, 4 mg, read-out: AUC0–∞): 254 ng·h/mL
Cmax ([3]; po, 4 mg, read-out: Cmax): 3.6 ng/mL
Vd/F ([3]; po, 4 mg): 868 L
Tmax ([3]; po, 4 mg, read-out: tmax): 14 h
AUC(0-t) ([3]; po, 16 mg): 1030 ng·h/mL
half-life ([3]; po, 16 mg, FDV 16 mg single oral dose, fasted, gMean (gCV%), read-out: t½ (converted)): 31.8 h
Cmax ([3]; po, 16 mg, read-out: Cmax): 22.8 ng/mL
Vd/F ([3]; po, 16 mg): 600 L
Tmax ([3]; po, 16 mg, read-out: tmax): 8 h
AUC(0-t) ([3]; po, 48 mg): 3280 ng·h/mL
half-life ([3]; po, 48 mg, FDV 48 mg single oral dose, fasted, gMean (gCV%), read-out: t½ (converted)): 37.7 h
AUC(0-inf) ([3]; po, 48 mg, read-out: AUC0–∞): 3980 ng·h/mL
Cmax ([3]; po, 48 mg, read-out: Cmax): 86.6 ng/mL
Vd/F ([3]; po, 48 mg): 640 L
Tmax ([3]; po, 48 mg, read-out: tmax): 8 h
AUC(0-t) ([3]; po, 120 mg): 9660 ng·h/mL
half-life ([3]; po, 120 mg, FDV 120 mg single oral dose, fasted, gMean (gCV%), read-out: t½ (converted)): 27.4 h
AUC(0-inf) ([3]; po, 120 mg, read-out: AUC0–∞): 10700 ng·h/mL
Cmax ([3]; po, 120 mg, read-out: Cmax): 344 ng/mL
Vd/F ([3]; po, 120 mg): 435 L
Tmax ([3]; po, 120 mg, read-out: tmax): 7 h
AUC(0-t) ([3]; po, 240 mg): 36100 ng·h/mL
half-life ([3]; po, 240 mg, FDV 240 mg single oral dose, fasted, gMean (gCV%), read-out: t½ (converted)): 22.2 h
AUC(0-inf) ([3]; po, 240 mg, read-out: AUC0–∞): 37400 ng·h/mL
Cmax ([3]; po, 240 mg, read-out: Cmax): 2070 ng/mL
Vd/F ([3]; po, 240 mg): 200 L
Tmax ([3]; po, 240 mg, read-out: tmax): 4 h
AUC(0-t) ([3]; po, 480 mg): 74100 ng·h/mL
half-life ([3]; po, 480 mg, FDV 480 mg single oral dose, fasted, gMean (gCV%), read-out: t½ (converted)): 33.3 h
AUC(0-inf) ([3]; po, 480 mg, read-out: AUC0–∞): 80700 ng·h/mL
Cmax ([3]; po, 480 mg, read-out: Cmax): 4300 ng/mL
Vd/F ([3]; po, 480 mg): 278 L
Tmax ([3]; po, 480 mg, read-out: tmax): 4 h
AUC(0-t) ([3]; po, 800 mg): 127000 ng·h/mL
half-life ([3]; po, 800 mg, FDV 800 mg single oral dose, fasted, gMean (gCV%), read-out: t½ (converted)): ~16 h
AUC(0-inf) ([3]; po, 800 mg, read-out: AUC0–∞): 128000 ng·h/mL
Cmax ([3]; po, 800 mg, read-out: Cmax): 6630 ng/mL
Vd/F ([3]; po, 800 mg): 141 L
Tmax ([3]; po, 800 mg, read-out: tmax): 9 h
AUC(0-t) ([3]; po, 1200 mg): 397000 ng·h/mL
half-life ([3]; po, 1200 mg, FDV 1,200 mg single oral dose, fasted, gMean (gCV%), read-out: t½ (converted)): ~16 h
AUC(0-inf) ([3]; po, 1200 mg, read-out: AUC0–∞): 402000 ng·h/mL
Cmax ([3]; po, 1200 mg, read-out: Cmax): 16500 ng/mL
Vd/F ([3]; po, 1200 mg): 65 L
Tmax ([3]; po, 1200 mg, read-out: tmax): 8 h
Inter-subject variability, gCV of AUC0–∞ ([3]; most of the lower-dose groups): approximately 30%
Increase of AUC0–∞ (systemic exposure) after high-fat breakfast [4, 7]: 14%
Increase of Cmax after high-fat and high-calorie breakfast [4, 7]: 9%
Effect of food on the rBA of FDV ([4]; 480 mg FDV in solution, high-fat breakfast): no clinically relevant effect
Tmax ([4]; FDV 480 mg/fasted): 4 (4–6) h
Tmax ([4]; FDV 480 mg/fed): 6 (4–12) h
AUC(0-t) [4, 8]: 83400 ng·h/mL
Vd/F [4, 8]: 161 L
half-life [4, 8]: 19.6 h
Tmax ([4]; male, human, plasma, oral, 480 mg, FDV 480 mg/fasted, read-out: tmax): 6 h
AUC(0-t) [4, 9]: 92000 ng·h/mL
Vd/F [4, 9]: 132 L
half-life [4, 9]: 18 h
Tmax ([4]; male, human, plasma, oral, 480 mg, FDV 480 mg/fed, read-out: tmax): 4 h
Predicted enrichment in the liver in humans [5]: 22–32 fold
Effect on CYP2C9 [6]: inhibitory effects
